Earlier results, collected in patent US20030073115A1 (priority 2002, published 2003).

Columns and labels:
[1] = test system: gastrointestinal smooth muscle
CNS galanin receptors = conditions: CNS / brain
[2] = test system: Galanin receptors in the dorsal hippocampus

Row | Compound | activity in gastrointestinal smooth muscle [1] | activity at CNS galanin receptors (CNS galanin receptors) | affinity [2]
1 | CSCC[C@H](NC(=O)[C@H](CC(C)C)NC(=O)CNC(=O)[C@H](Cc1ccccc1)NC(=O)[C@H](Cc1ccccc1)NC(=O)[C@H](CCC(N)=O)NC(=O)[C@H](CCC(N)=O)NC(=O)[C@@H]1CCCN1C(=O)CNC(=O)[C@H](CC(C)C)NC(=O)[C@H](CC(C)C)NC(=O)[C@H](Cc1ccc(O)cc1)NC(=O)CNC(=O)[C@H](C)NC(=O)[C@H](CO)NC(=O)[C@H](CC(N)=O)NC(=O)[C@H](CC(C)C)NC(=O)[C@@H](NC(=O)[C@H](Cc1c[nH]c2ccccc12)NC(=O)CN)[C@@H](C)O)C(N)=O [M15] | full agonist | antagonist | –
2 | Gal (1-15): galanin fragment 1-15 | – | – | high affinity
